Laboratory results taken from US20150335558A1, “NERVE GROWTH INHIBITOR, CUTANEOUS-SENSORY-IRRITATION INHIBITOR, AND MARKER FOR CUTANEOUS-SENSORY-IRRITATION DETECTION” (HOYU CO., LTD., priority 2012, published 2015).

Tested on: ICR mice
Experiment: Scratch bouts of ICR mice after 10% SDS application (Sample Experiment 1-1)
Assay type: in vivo, mouse
Conditions: ICR mice, 10% SDS aqueous solution 50 μL single application to rostral back, Day 0 to Day 4, vs untreated and solvent control
Procedure: The present Sample Experiment was conducted using ICR mice, and an anionic surfactant, namely, sodium dodecyl sulfate (SDS), was used as a stimulating substance to analyze the scratch bouts of mice. After SDS had been applied, terfenadine (TRF) was administered as an antihistamine to determine its effect on scratch bouts.
Male ICR mice at ages of 7 to 8 weeks, purchased from Japan SLC, were used. The mice were given solid feed under free water supply and subjected to preliminary rearing for 7 days or longer under a constant temperature/constant humidity environment with a temperature of 22±2° C., and a humidity of 55±10% before they were used in the test. The mice for use were used in the test at least 3 days after shearing/depilating the rostral back of each mouse. […]
The scratch bouts of mice were performed in view of the Kuraishi et al. report. That is, a single mouse was put in each chamber of the 4 divided sections in an acrylic box (13×9×35 cm) to be acclimated for at least an hour, and they were video recorded in an environment without any person for at least an hour a day from the day of applying the above 10% SDS aqueous solution (Day 0) to the 4th day after application (Day 4) to record their movement. Then, by watching the video, the number of scratch bouts against the rostral back by the hind leg was counted. […]

CCCCCCCCCCCCOS(=O)(=O)[O-].[Na+] [SDS, sodium dodecyl sulfate]
scratch bouts of mice (number in 60 mins.) after stimulating substance: increased significantly over time
